US9309242B2, “Substituted pyrido[2,3-b]pyrazines as FGFR kinase inhibitors” (priority 2011, dated 2016)

Tests used:
[1] = biological target: FGFR4 (h) (Homo sapiens, UniProt P22455); assay: FGFR4 (enzymatic assay), TR-FRET; assay type: biochemical; conditions: FGFR 4 pIC50, enzymatic assay
[2] = biological target: FGFR2 (h) (Homo sapiens, UniProt P21802); assay: FGFR2 (enzymatic assay), TR-FRET; assay type: biochemical; conditions: enzymatic assay; read-out: FGFR 2 pIC50 (converted)
Method in brief: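 Kinase reaction in 50 mM HEPES pH 7.5 with 6 mM MnCl2, 1 mM DTT, 0.1 mM Na3VO4 and 0.01% Triton-X-100 contained FGFR2 (h) at 150 ng/ml. Biotinylated Flt3 peptide (500 nM) served as substrate with 0.4 μM ATP, compound added in 1% DMSO final.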

[3] = biological target: Ba/F3-FGFR4-transfected cells (Homo sapiens, UniProt P22455); assay: Ba/F3-FGFR4 cellular proliferation assay, Alamar Blue; assay type: cell-based
Method in brief: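 Proliferation of Ba/F3-FGFR4-transfected cells is gauged by Alamar Blue (resazurin) fluorescence after 24 hours of compound treatment in phenol red free RPMI-1640 with 10% FBS.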

[4] = biological target: FGFR1 (h) (Homo sapiens, UniProt P11362); assay: FGFR1 (enzymatic assay), TR-FRET; assay type: biochemical; conditions: read-out: FGFR 1 pIC50 (converted)
Sequence of FGFR1 (h) (P11362 22-822): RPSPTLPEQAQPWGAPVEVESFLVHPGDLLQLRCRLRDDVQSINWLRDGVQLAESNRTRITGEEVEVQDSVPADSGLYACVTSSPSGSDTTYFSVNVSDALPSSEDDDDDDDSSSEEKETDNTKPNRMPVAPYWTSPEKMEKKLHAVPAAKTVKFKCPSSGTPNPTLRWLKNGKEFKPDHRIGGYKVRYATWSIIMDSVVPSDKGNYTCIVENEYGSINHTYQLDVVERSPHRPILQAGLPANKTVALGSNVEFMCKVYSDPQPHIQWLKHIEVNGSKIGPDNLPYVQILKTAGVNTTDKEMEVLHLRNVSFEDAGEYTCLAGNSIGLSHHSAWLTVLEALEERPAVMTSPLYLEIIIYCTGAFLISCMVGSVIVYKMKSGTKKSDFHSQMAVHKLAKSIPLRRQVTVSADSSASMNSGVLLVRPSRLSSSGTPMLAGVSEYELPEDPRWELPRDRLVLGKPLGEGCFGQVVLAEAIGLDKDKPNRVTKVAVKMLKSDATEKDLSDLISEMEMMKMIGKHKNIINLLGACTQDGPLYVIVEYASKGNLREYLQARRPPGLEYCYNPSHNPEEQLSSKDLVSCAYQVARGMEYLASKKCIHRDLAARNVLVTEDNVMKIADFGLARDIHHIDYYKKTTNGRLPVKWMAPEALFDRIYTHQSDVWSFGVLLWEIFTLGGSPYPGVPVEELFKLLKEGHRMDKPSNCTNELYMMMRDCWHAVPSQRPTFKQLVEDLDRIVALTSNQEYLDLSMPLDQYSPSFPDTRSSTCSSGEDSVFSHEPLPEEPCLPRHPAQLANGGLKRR

Sequence of FGFR2 (h) (P21802 22-821): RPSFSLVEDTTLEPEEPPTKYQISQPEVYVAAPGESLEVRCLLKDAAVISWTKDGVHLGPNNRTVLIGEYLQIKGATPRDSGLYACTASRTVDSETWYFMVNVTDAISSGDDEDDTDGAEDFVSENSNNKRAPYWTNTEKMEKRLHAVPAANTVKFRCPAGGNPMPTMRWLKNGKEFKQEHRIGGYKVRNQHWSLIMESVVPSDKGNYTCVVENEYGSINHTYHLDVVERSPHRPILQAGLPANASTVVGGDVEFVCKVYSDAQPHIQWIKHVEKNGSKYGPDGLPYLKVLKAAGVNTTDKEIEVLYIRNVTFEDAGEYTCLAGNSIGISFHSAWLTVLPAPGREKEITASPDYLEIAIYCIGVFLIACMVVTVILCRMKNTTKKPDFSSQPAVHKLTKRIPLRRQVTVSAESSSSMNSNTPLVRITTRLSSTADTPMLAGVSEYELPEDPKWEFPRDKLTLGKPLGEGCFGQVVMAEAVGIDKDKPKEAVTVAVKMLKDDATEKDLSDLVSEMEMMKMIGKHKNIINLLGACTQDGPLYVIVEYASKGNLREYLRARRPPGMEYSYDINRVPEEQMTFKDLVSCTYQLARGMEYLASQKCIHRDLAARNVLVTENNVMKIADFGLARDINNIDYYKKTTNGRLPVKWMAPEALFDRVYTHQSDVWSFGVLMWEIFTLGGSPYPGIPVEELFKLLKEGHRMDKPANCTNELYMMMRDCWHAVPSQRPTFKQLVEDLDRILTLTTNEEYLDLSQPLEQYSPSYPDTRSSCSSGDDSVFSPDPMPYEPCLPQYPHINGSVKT
Sequence of Ba/F3-FGFR4-transfected cells (P22455 whole entry, change not shown): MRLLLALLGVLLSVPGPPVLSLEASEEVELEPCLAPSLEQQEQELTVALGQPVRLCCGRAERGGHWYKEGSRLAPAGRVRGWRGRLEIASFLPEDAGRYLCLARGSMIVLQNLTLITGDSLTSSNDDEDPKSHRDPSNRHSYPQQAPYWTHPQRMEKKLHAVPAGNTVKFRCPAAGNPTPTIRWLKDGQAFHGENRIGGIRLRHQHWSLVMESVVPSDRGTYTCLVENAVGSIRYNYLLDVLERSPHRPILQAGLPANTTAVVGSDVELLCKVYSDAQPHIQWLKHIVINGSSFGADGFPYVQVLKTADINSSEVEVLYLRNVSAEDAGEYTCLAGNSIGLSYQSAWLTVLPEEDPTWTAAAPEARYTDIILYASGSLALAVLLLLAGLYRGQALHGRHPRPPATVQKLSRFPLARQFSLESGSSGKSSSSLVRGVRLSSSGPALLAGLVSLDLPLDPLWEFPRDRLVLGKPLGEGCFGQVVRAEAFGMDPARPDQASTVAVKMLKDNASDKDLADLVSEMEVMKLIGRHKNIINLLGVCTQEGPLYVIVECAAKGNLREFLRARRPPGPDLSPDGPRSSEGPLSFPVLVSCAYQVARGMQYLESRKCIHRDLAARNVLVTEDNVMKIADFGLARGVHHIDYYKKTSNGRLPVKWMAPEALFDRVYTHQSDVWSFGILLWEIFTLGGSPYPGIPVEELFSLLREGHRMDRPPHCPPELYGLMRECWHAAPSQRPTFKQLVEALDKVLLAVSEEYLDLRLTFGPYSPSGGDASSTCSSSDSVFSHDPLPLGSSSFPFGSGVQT
Sequence of FGFR4 (h) (P22455 22-802): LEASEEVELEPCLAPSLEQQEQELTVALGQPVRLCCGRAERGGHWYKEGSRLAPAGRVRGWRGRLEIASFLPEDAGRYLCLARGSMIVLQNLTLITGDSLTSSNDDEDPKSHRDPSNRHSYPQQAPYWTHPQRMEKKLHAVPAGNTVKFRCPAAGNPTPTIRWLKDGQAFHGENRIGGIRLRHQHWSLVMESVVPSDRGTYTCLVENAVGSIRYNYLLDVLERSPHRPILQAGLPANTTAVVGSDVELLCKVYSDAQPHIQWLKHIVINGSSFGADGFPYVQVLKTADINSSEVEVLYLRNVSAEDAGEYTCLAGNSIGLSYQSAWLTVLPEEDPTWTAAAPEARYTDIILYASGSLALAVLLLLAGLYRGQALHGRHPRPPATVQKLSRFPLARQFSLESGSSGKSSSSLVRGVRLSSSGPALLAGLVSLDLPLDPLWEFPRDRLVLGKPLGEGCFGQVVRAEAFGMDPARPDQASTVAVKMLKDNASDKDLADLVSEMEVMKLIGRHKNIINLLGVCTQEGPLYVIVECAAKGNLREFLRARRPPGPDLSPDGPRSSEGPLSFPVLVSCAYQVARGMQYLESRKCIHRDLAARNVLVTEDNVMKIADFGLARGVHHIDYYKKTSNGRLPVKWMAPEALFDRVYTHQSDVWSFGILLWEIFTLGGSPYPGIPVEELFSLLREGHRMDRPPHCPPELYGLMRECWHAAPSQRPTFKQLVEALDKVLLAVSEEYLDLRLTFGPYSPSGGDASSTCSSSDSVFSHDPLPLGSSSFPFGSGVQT

Row | SMILES | melting point [°C] | IC50 [1] [nM] | IC50 [2] [nM] | BAF3-FGFR4 pIC50 [3] | IC50 [4] [nM]
1 | COc1cc(OC)c(F)c(N(CC(=O)O)c2ccc3ncc(-c4cnn(C)c4)nc3n2)c1 [Compound 231] | > 260 | 17.8 | 6.31 | 5.02 | 4.79
2 | COc1cc(OC)cc(N(Cc2nnc(N)o2)c2ccc3ncc(-c4cnn(C)c4)nc3n2)c1 [Compound 188] | 246 | 1.62 | 1.35 | 6.62 | 1.66
3 | COc1cc(/N=c2\ccc3ncc(-c4cnn(C)c4)nc3n2CC2CCOC2)c(F)c(OC)c1 (single isomer, unassigned) [Compound 169] | 80 | 0.977 | 1.62 | 7.20 | ~0.933
4 | COc1cc(OC)cc(N(Cc2nnco2)c2ccc3ncc(-c4cnn(C)c4)nc3n2)c1 [Compound 217] | 240 | 23.4 | 5.89 | 6.03 | 7.94
5 | COc1cc(OC)c(F)c(/N=c2\ccc3ncc(-c4cnn(C)c4)nc3n2CCN(C2COC2)C2COC2)c1F [Compound 164] | 218 | 0.977 | 1.82 | ~7.66 | 1.02
6 | COc1cc(OC)c(F)c(N(CC(=O)NCCO)c2ccc3ncc(-c4cnn(C)c4)nc3n2)c1 [Compound 230] | 258 | 42.7 | 7.41 | 5.73 | 7.59
7 | COc1cc(OC)c(F)c(N(CC#N)c2ccc3ncc(-c4cnn(C)c4)nc3n2)c1F [Compound 173] | 250 | 0.724 | 1.1 | 7.61 | ~0.977
8 | COc1cc(OC)c(F)c(N(CCNC2COC2)c2ccc3ncc(-c4cnn(C)c4)nc3n2)c1F (single isomer, unassigned) [Compound 162] | 183 | 2.57 | 2.19 | ~7.56 | 1.17
9 | COc1cc(OC)c(F)c(N(CCO)c2ccc3ncc(-c4cnn(CCO)c4)nc3n2)c1 [Compound 233] | 194 | 2.88 | 1.7 | 6.91 | 0.759
10 | COc1cc(OC)c(F)c(N(CC2CCC(=O)N2CCO)c2ccc3ncc(-c4cnn(C)c4)nc3n2)c1 (single isomer, unassigned) [Compound 218] | 130 | 3.89 | 5.5 | 6.99 | 3.24
11 | COc1cc(OC)c(F)c(/N=c2\ccc3ncc(-c4cnn(C)c4)nc3n2CC2CCOC2)c1F (stereo not shown) [Compound 154] | 226 | 0.776 | 1.05 | ~7.6 | 0.661
12 | COc1cc(OC)cc(N(Cc2n[nH]c(=O)o2)c2ccc3ncc(-c4cnn(C)c4)nc3n2)c1 [Compound 229] | 232 | 22.4 | 5.62 | 5.45 | 4.9
13 | COc1cc(OC)cc(N(Cc2noc(C)n2)c2ccc3ncc(-c4cnn(C)c4)nc3n2)c1 [Compound 186] | 177 | 12 | 2.57 | 6.36 | 2.45
14 | COc1cc(/N=c2\ccc3ncc(-c4cnn(CC(C)(C)O)c4)nc3n2CC(C)(C)O)c(F)c(OC)c1 (single isomer, unassigned) [Compound 207] | 154 | 3.16 | 2.51 | 6.69 | 0.813
